The source of these data is patent publication US20090226494A1, “PATHOGEN - CONTROLLING PRODUCTS” (priority 2005, published 2009).

For one data set, the system named is ACCB. Conditions: 40 and 150 ppm.
Another data set concerns MRSA. Kind of data set: Time kill curves in RPMI-1460 medium. Conditions: 20 and 150 ppm. Format: cell-based, Staphylococcus aureus.
The subject of the next data set is HT-29 cells. Kind of data set: Sulforhodamine (SRB) cytotoxicity assay and microscopy. Conditions: 24 and 48 hours. The class given is cell-based, human. The source says: (§1) The three copper-containing antimicrobial solutions—CuPC33, CuAL42 and CuWB50—were provided and each contained 30.43 g/L of copper ion. […] Two human cell lines were used for this example: HT-29, an intestinal epithelial cell line, and U937, a monocytic lymphoma. […] After examination by microscopy the cells were then fixed and stained to quantitatively determine cytotoxicity using a sulforhodamine (SRB) cytotoxicity assay, developed and validated at the National Cancer Institute. […] All test cultures were in triplicate.

A further data set has as its system U937 cells. Described as above. Conditions: 24 and 48 hours. Format: cell-based, human.
Excerpt: as §1

Data set [1] has as its system A431 human skin cell line. Kind of data set: Hand gel cytotoxicity, SRB assay. The class given is cell-based. Conditions: 10% concentration (highest), 24 hours. Here is the method: Methods: The human squamous epithelial cell line A431 was cultured in RPMI 1640 medium supplemented with 10% FCS, 2 g/L sodium bicarbonate and 2 mM L-glutamine (complete medium), in 75 cm^2 tissue culture flasks in a humidified incubator at 37° C. with a 5% CO2 in air atmosphere. For the cytotoxicity experiments, A431 cells were plated into the wells of flat-bottom 96 well plates at 5×10^4 cells per well in 200 μl of complete medium and allowed to grow to confluence. On the day of the experiment the depleted culture medium was aspirated and replaced with 100 μl of fresh complete medium. Samples of the hand gels were diluted in complete medium to double the concentrations shown in the Figure and 100 μl of each samples was added to the cells which were then cultured for a further 24 hours. After microscopic examination, the cells were fixed and stained to quantitatively determine cytotoxicity as described below. The sulforhodamine B (SRB) cytotoxicity assay was developed and validated at the National Cancer Institute. […] After washing twice with tap water the remaining stain was dissolved in 10 mM Tris base and the optical density (O.D.) of the wells was measured on a Dynatech Multiplate ELISA reader at 540 nm. The percent cell survival was calculated by dividing the test O.D. by control O.D. and multiplying by 100.
(In general: In SRB staining, fixed cells bind dye roughly in proportion to their protein.)

`O=S(=O)([O-])[O-].[Cu+2]` [copper sulphate]: the figures for the “activity in time kill curves” value with ACCB and with MRSA were “little initial activity but the bacteria recovered” and “some activity but the bacteria recovered”, respectively. For the same compound, the cytotoxicity entry in the data set on HT-29 cells (1-100 ppm, 5% or 25% FCS) is on record as “not significantly cytotoxic”; in the data set with HT-29 cells (1000 ppm), “very toxic”; in the data set with U937 cells (1-100 ppm, 5% or 25% FCS), “not significantly cytotoxic”; with U937 cells (1000 ppm), “very toxic”.
`CCO` [ethanol]: the “reduction of cell survival / cells killed” value in data set [1] is recorded as “around 50%”.
